Where a name gives a salt, the structure may show the parent alone.

We go through 19 compounds from patent US20250144067A1, “PERSONALIZED STARVATION THERAPY FOR CANCER” (Faeth Therapeutics, Inc., priority 2021, published 2025).

For assay [1], the system named is NCI-H292 lung cancer cells. The experiment in a line: FDA drug screening, complete media vs cholesterol-free media without statin (TABLE 1). It counts as cell-based, human.
Assay [2] concerns NCI-H292 lung cancer cells. The experiment in a line: FDA drug screening, complete media vs cholesterol-free media with simvastatin (TABLE 2). It counts as cell-based, human. The settings on record: for Cholesterol-free media + simvastatin (0.04 μM) / Complete Media: NCI-H292 cells.
[3] abbreviates: Complete minus Cholesterol-free, greater than 0 enhanced anti-cancer activity, about 0 neutral, below 0 antagonist.
Where [4] appears, read: NCI-H292 cells, FDA drug library screen, cholesterol-free media without statin.
Setting [5] is: NCI-H292 cells, FDA drug library screen, complete media.
Where [6] appears, read: FDA drug library screen, cholesterol-free media with simvastatin 0.04 μM.
Where [7] appears, read: FDA drug library screen, complete media.
Setting [8] is: complete media vs cholesterol-free media + simvastatin (0.04 μM), >0 enhanced anti-cancer activity, about 0 neutral, <0 antagonist.
Where [9] appears, read: NCI-H292 cells, cholesterol-free media without statin, FDA drug library screen.
Where [10] appears, read: NCI-H292 cells, complete media, FDA drug library screen.
The mark [11] stands for this setting: FDA library drug in cholesterol-free media with simvastatin 0.04 μM.
Where [12] appears, read: FDA library drug in complete media.
Setting [13] is: complete media vs cholesterol-free media + simvastatin (0.04 μM), […].
[14] abbreviates: NCI-H292 cells, cholesterol-free media without statin.
Where [15] appears, read: complete vs cholesterol-free media, greater than 0 enhanced anti-cancer activity, about 0 neutral, below 0 antagonists.
The mark [16] stands for this setting: complete media minus cholesterol-free media + simvastatin, >0 enhanced anti-cancer activity, about 0 neutral, <0 antagonist.
Setting [17] is: complete vs cholesterol-free media, >0 enhanced anti-cancer activity, about 0 neutral, <0 antagonist.
The mark [18] stands for this setting: cholesterol-free media with simvastatin 0.04 μM, FDA drug library screen (TABLE 2).
Where [19] appears, read: complete media, FDA drug library screen (TABLE 2).
Where [20] appears, read: complete media minus cholesterol-free media + simvastatin (0.04 μM), >0 enhanced anti-cancer activity, about 0 neutral, <0 antagonist.
Where [21] appears, read: Complete minus Cholesterol-free, >0 enhanced anti-cancer activity, about 0 neutral, <0 antagonist.
Where [22] appears, read: drug in cholesterol-free media with simvastatin 0.04 μM.
The mark [23] stands for this setting: cholesterol-free media with simvastatin 0.04 μM, cell growth value in FDA drug screen.
[24] abbreviates: complete media, cell growth value in FDA drug screen.
Setting [25] is: Complete minus Cholesterol-free, greater than 0 enhanced anti-cancer activity, about 0 neutral, below 0 antagonists.
Where [26] appears, read: NCI-H292 cells in cholesterol-free media without statin.
[27] abbreviates: NCI-H292 cells in complete media.

On to `CC(=O)c1ccc(S(=O)(=O)NC(=O)NC2CCCCC2)cc1` [Acetohexamide], for which the Difference was −0.13 in assay [1] (setting [3]) and −0.10 in assay [2] (setting [8]). In assay [1] (setting [4]), this compound had a Cholesterol-free of 1.163. The Complete in assay [1] (setting [5]) was determined as 1.03. Besides, in assay [2] (setting [6]), the “Cholesterol-free media + simvastatin (0.04 μM)” value was determined as 1.214. Also, the “Complete Media” value in assay [2] (setting [7]) turned out to be 1.116.
The compound Gilteritinib hemifumarate registered a Cholesterol-free in assay [1] (setting [9]) of 0.3721. In assay [1] (setting [10]), this compound registered a Complete of 0.7198. Moreover, the Difference in assay [1] (complete vs cholesterol-free media, […]) is 0.35; in assay [2] (setting [13]), −0.53. Further, the “Cholesterol-free media + simvastatin (0.04 μM)” value in assay [2] (setting [11]) is 0.9393. The “Complete Media” value in assay [2] (setting [12]) is listed as 0.4057.
`CC1(C)CCC[C@](C)([C@H]2CC[C@]3(C)[C@@H]2[C@H](O)C[C@@H]2[C@@]4(C)CC[C@H](O)C(C)(C)[C@@H]4[C@@H](O)C[C@]23C)O1` [Panaxatriol]: the Difference in assay [1] (Complete minus Cholesterol-free, […]) is listed as −0.09; in assay [2] (setting [13]), −0.13. The same compound showed a Cholesterol-free in assay [1] (setting [4]) of 1.136. The same compound yielded a Complete in assay [1] (setting [5]) of 1.044. The “Cholesterol-free media + simvastatin (0.04 μM)” value in assay [2] (setting [6]) is 1.085. For the same compound, in assay [2] (setting [7]), the “Complete Media” value is 0.956.
Consider `CCCOc1ccc(C(=O)OCCN(CC)CC)cc1N` [Proparacaine (Hydrochloride)], for which the Cholesterol-free in assay [1] (setting [14]) is 1.255. The Complete in assay [1] (NCI-H292 cells, complete media) amounted to 0.8769. Also, the Difference in assay [1] (setting [15]) is recorded as −0.38; in assay [2] (setting [16]) it was 0.48. In addition, in assay [2] (setting [6]), the “Cholesterol-free media + simvastatin (0.04 μM)” value was 0.544. The “Complete Media” value in assay [2] (setting [7]) came out at 1.021.
In the case of `CC(C[N+](C)(C)C)OC(N)=O.[Cl-]` (centres unmarked) [Bethanechol (chloride)], the Cholesterol-free in assay [1] (setting [9]) amounted to 1.24. Further, the Complete in assay [1] (setting [10]) worked out at 1.407. The figures for the Difference in assay [1] (setting [17]) and in assay [2] (setting [8]) were 0.17 and −0.35, respectively. For the same compound, in assay [2] (setting [11]), the “Cholesterol-free media + simvastatin (0.04 μM)” value is 1.34. Also, the “Complete Media” value in assay [2] (setting [12]) stood at 0.9882.
`CC(=O)c1ccc(O)c(C(=O)O)c1` [5-Acetylsalicylic acid] displayed a Cholesterol-free in assay [1] (setting [9]) of 0.912. Besides, the Complete in assay [1] (setting [10]) stood at 1.045. For the same compound, the results for the Difference in assay [1] (setting [17]) and in assay [2] (setting [8]) were 0.13 and −0.37, respectively. In addition, in assay [2] (setting [11]), the “Cholesterol-free media + simvastatin (0.04 μM)” value was determined as 1.188. For the same compound, the “Complete Media” value in assay [2] (setting [12]) came to 0.8198.
For the compound `Nc1ccn([C@@H]2O[C@H](CO)[C@@H](O)[C@@H]2O)c(=O)n1` [Cytarabine (hydrochloride)], the figures for the Difference in assay [1] (setting [3]) and in assay [2] (setting [20]) were −0.08 and −0.05, respectively. The Cholesterol-free in assay [1] (setting [4]) came to 0.1883. The compound also returned a Complete in assay [1] (setting [5]) of 0.1064. Also, the “Cholesterol-free media + simvastatin (0.04 μM)” value in assay [2] (setting [18]) stood at 0.3553. Also, in assay [2] (setting [19]), the “Complete Media” value is on record as 0.3011.
Turning to `Nc1ccn([C@@H]2O[C@H](CO)[C@@H](O)[C@H]2O)c(=O)n1` [Cytidine], the Difference in assay [1] (setting [21]) is −0.23; in assay [2] (setting [8]), −0.19. Also, the Cholesterol-free in assay [1] (setting [14]) was determined as 1.318. In assay [1] (NCI-H292 cells, complete media), this compound had a Complete of 1.09. In assay [2] (setting [22]), the “Cholesterol-free media + simvastatin (0.04 μM)” value is 1.411. The “Complete Media” value in assay [2] (drug in complete media) amounted to 1.221.
Regarding `Nc1ccn([C@H]2CC[C@@H](CO)O2)c(=O)n1` [Zalcitabine], the Difference in assay [1] (setting [21]) is reported as −0.22; in assay [2] (setting [16]), 0.06. Moreover, the Cholesterol-free in assay [1] (setting [14]) came to 1.156. Further, the Complete in assay [1] (NCI-H292 cells, complete media) was 0.9405. The “Cholesterol-free media + simvastatin (0.04 μM)” value in assay [2] (setting [23]) came out at 1.825. For the same compound, in assay [2] (setting [24]), the “Complete Media” value stood at 1.89.
Consider `CO/N=C(\C(=O)N[C@@H]1C(=O)N2C(C(=O)O)=C(COC(C)=O)CS[C@H]12)c1csc(N)n1` [Cefotaxime], for which the Difference is listed as −0.57 in assay [1] (setting [25]) and −0.09 in assay [2] (setting [8]). The Cholesterol-free in assay [1] (setting [26]) is 1.225. Further, in assay [1] (setting [27]), the Complete is 0.66. The “Cholesterol-free media + simvastatin (0.04 μM)” value in assay [2] (setting [6]) came out at 0.9945. For the same compound, the “Complete Media” value in assay [2] (setting [7]) amounted to 0.8998.
For `CCCC(=O)Nc1ncnc2c1ncn2[C@@H]1O[C@@H]2COP(=O)(O)O[C@H]2[C@H]1OC(=O)CCC` [Bucladesine (sodium)], the Difference in assay [1] (setting [21]) is reported as −0.23; in assay [2] (setting [8]), −0.20. Besides, the Cholesterol-free in assay [1] (setting [14]) was determined as 1.11. In addition, the Complete in assay [1] (NCI-H292 cells, complete media) worked out at 0.8768. Besides, the “Cholesterol-free media + simvastatin (0.04 μM)” value in assay [2] (setting [22]) worked out at 1.094. Also, the “Complete Media” value in assay [2] (drug in complete media) stood at 0.8977.
Take `CC(C)(CO)C(O)C(=O)NCCCO` (racemic) [DL-Panthenol]: the Difference was −0.82 in assay [1] (setting [25]) and −0.13 in assay [2] (setting [8]). The compound further yielded a Cholesterol-free in assay [1] (setting [26]) of 1.816. For the same compound, in assay [1] (setting [27]), the Complete turned out to be 0.9995. Besides, in assay [2] (setting [6]), the “Cholesterol-free media + simvastatin (0.04 μM)” value stood at 1.177. For the same compound, in assay [2] (setting [7]), the “Complete Media” value is on record as 1.049.
In assay [1] (setting [9]), `CN1CCCC(n2nc(Cc3ccc(Cl)cc3)c3ccccc3c2=O)CC1` (centres unmarked) [Azelastine (hydrochloride)] yielded a Cholesterol-free of 0.9594. Moreover, the Complete in assay [1] (setting [10]) came to 1.039. Also, the Difference was 0.08 in assay [1] (setting [17]) and −0.22 in assay [2] (setting [8]). The “Cholesterol-free media + simvastatin (0.04 μM)” value in assay [2] (setting [22]) is reported as 1.092. The “Complete Media” value in assay [2] (drug in complete media) is listed as 0.8741.
As to `CC1(C)S[C@@H]2[C@H](NC(=O)[C@H](NC(=O)N3CCNC3=O)c3ccccc3)C(=O)N2[C@H]1C(=O)O` [Azlocillin (sodium salt)], the Difference in assay [1] (setting [3]) was −0.16; in assay [2] (setting [8]), −0.09. Further, in assay [1] (setting [4]), the Cholesterol-free was 1.217. For the same compound, the Complete in assay [1] (setting [5]) came out at 1.06. The “Cholesterol-free media + simvastatin (0.04 μM)” value in assay [2] (setting [6]) is recorded as 1.046. Besides, the “Complete Media” value in assay [2] (setting [7]) is 0.9592.
As to `O=C(O)CCCN1CCC(O[C@@H](c2ccc(Cl)cc2)c2ccccn2)CC1` [Bepotastine (besilate)], in assay [1] (setting [14]), the Cholesterol-free was determined as 1.237. Also, the Complete in assay [1] (NCI-H292 cells, complete media) was determined as 0.8985. The Difference in assay [1] (setting [15]) is recorded as −0.34; in assay [2] (setting [8]), −0.38. In assay [2] (setting [11]), the “Cholesterol-free media + simvastatin (0.04 μM)” value came to 1.245. Moreover, the “Complete Media” value in assay [2] (setting [12]) came to 0.8639.
For Escitalopram (oxalate), the Difference was −0.01 in assay [1] (setting [21]) and 0.04 in assay [2] (setting [16]). In assay [1] (setting [9]), this compound gave a Cholesterol-free of 1.284. In addition, in assay [1] (setting [10]), the Complete is 1.269. Also, the “Cholesterol-free media + simvastatin (0.04 μM)” value in assay [2] (setting [23]) is 0.9976.
In assay [1] (setting [14]), `Nc1ccc(S(=O)(=O)Nc2ncccn2)cc1` [Sulfadiazine] displayed a Cholesterol-free of 1.21. For the same compound, the Complete in assay [1] (NCI-H292 cells, complete media) is given as 0.7631. The Difference is −0.45 in assay [1] (setting [15]) and 0.06 in assay [2] (setting [16]). Moreover, the “Cholesterol-free media + simvastatin (0.04 μM)” value in assay [2] (setting [23]) is 1.499. Further, the “Complete Media” value in assay [2] (setting [24]) came out at 1.555.
In assay [1] (setting [9]), `COCC(=O)Nc1c(I)c(C(=O)NCC(O)CO)c(I)c(C(=O)N(C)CC(O)CO)c1I` (centres unmarked) [Iopromide] came in with a Cholesterol-free of 0.9462. In assay [1] (setting [10]), the Complete was determined as 1.578. Moreover, the Difference in assay [1] (setting [17]) is recorded as 0.63; in assay [2] (setting [20]), −0.02. Also, the “Cholesterol-free media + simvastatin (0.04 μM)” value in assay [2] (setting [18]) worked out at 0.8199. Also, the “Complete Media” value in assay [2] (setting [19]) stood at 0.7955.
For the compound `CS(=O)(=O)c1cccc(C[C@H](NC(=O)c2c(Cl)cc3c(c2Cl)CCN(C(=O)c2ccc4ccoc4c2)C3)C(=O)O)c1` [Lifitegrast], the figures for the Difference in assay [1] (setting [3]) and in assay [2] (setting [8]) were −0.15 and −0.14, respectively. Further, the Cholesterol-free in assay [1] (setting [4]) was found to be 1.11. The Complete in assay [1] (setting [5]) came out at 0.9552. Moreover, the “Cholesterol-free media + simvastatin (0.04 μM)” value in assay [2] (setting [6]) was 1.009. In assay [2] (setting [7]), the “Complete Media” value was 0.8652.
